Each structure is given as a SMILES string. Inconclusive results are not listed. Active and inactive are the calls of the source.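 Rule for the calls: active = EC50 no more than tenfold above the top concentration tested; inconclusive = flat fit with effect between 30% and 70%, or unusable fit; inactive = EC50 beyond tenfold above the top dose.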

These results are taken from PubChem BioAssay AID2631 (Broad Institute, 2010).

The test system of this assay is BJeLR fibroblast viability, alamar blue fluorescence, 48 h. Put plainly: growth inhibition of engineered Ras-driven BJ cells – cell-based, alamar blue fluorescence, cherrypicked samples, dose response (AID 2631).

For the compound `CCc1ccc(/C=C2/SC(=S)N(CCC(=O)NCCCN3CCOCC3)C2=O)cc1`, the EC50 (as a rule, the concentration giving half of the maximal effect) was > 6.67 µM (inactive). Regarding `CCc1ccc(/C=C2\SC(=S)N(CCC(=O)NCCCN3CCOCC3)C2=O)cc1`, the EC50 is > 6.67 µM (inactive).
